# How the values were obtained:
# Type in all cases: in vivo, rat
# [1] = system: conscious Sprague-Dawley rats; experiment: Acute cardiovascular and renal excretory studies with ICV or IV norBNI pretreatment (Example 4); details: for Total urine output: difelikefalin 10 μg/kg or nalfurafine 5 μg/kg IV, 90 min; for Urine osmolality / Urine potassium concentration [K+] / Urine sodium concentration [Na+]: total 90-min urine
# Protocol: Male Sprague-Dawley rats (Envigo Labs, Indianapolis, IN) were individually housed, allowed tap water and standard rodent diet ad libitum, and kept under a 12-hour light-dark cycle. Rats used in these experiments weighed between 300 and 350 grams and were randomly assigned to experimental groups. All procedures were conducted in accordance with the National Institutes of Health guidelines for the care and use of animals and approved by the Louisiana State University Health Sciences Center Institutional Animal Care and Use Committee.
# Aseptic technique was adhered to for all surgeries and detailed surgical methods were followed as previously described.^14 Briefly, 3-5 days before experimentation, rats requiring central ventricle access for administration of drug/vehicle into the brain were anesthetized with ketamine and xylazine and a stainless-steel cannula was stereotaxically implanted into the right lateral cerebral ventricle.^14
# On the morning of the experiment, rats were anesthetized and maintained with inhaled 2% isoflurane, and polyethylene catheters were surgically placed into the left femoral artery, left femoral vein, and urinary bladder.^15.16 Following surgery, rats were placed in an elevated restrainer for recovery and collection of urine from an indwelling bladder catheter.^15 After completion of experimental protocols, rats were anesthetized with isoflurane and decapitated.
# During stabilization of cardiovascular and renal excretory parameters, rats received an isotonic saline infusion (55 μl/min), which lasted throughout the duration of the experiment. To record mean arterial pressure (MAP) and heart rate (HR), arterial catheters were connected to a pressure transducer (MLT0670, ADInstruments, Sydney, Australia), which was connected to Powerlab 8/30 (ADInstruments) and visualized using LabChart software (v8.1.5; ADInstruments). After one hour of recovery from surgery, rats were pretreated with the KOR antagonist norBNI or isotonic saline vehicle through either an intracerebroventricular (ICV) catheter or intravenous (IV) catheter. […] Next, drug or vehicle (isotonic saline) was injected into the femoral vein and urine samples were collected every 10 minutes during a 90-minute experimental period. The following drug concentrations were used: nalfurafine 5 μg/kg, difelikefalin 10 μg/kg, norBNI 30 mg/kg (IV), norBNI 1 μg/5 μL (ICV). All groups are n=6. Urine sodium and potassium were measured using a flame photometer (model 943; Instrumentation Laboratories, Lexington, MA). Urine volume was measured gravimetrically, and urine osmolality was measured using a vapor pressure osmometer (model 5600; WESCOR, Logan, UT).
# All results are expressed as mean±SEM. For determining statistically different changes at time points within a treatment group, means were compared to the control value using 2-way ANOVA with repeated measures and a post hoc Dunnett test following confirmation of a significant F value. For statistically different changes at individual time points between treatment groups, mean values were compared using 2-way ANOVA with repeated measures and a post hoc Sidak test following confirmation of a significant/value. For means between groups for total urine output, urine sodium concentration, urine potassium concentration, and urine osmolality, a Student/test was used. Statistical significance was characterized as P<0.05 and statistics were performed on Prism 7.05 software (GraphPad Software, Inc, San Diego, CA).
# [2] = system: conscious Sprague-Dawley rats; experiment: Metabolic cage renal excretory studies, oral gavage (Example 3)
# Protocol: Animals: Male Sprague-Dawley (SD) rats (Envigo Labs, Indianapolis, IN), 300-350 g, were individually housed under a 12 h light-dark cycle and allowed tap water and standard rodent diet ad libitum. Rats were randomly assigned to experimental groups for all acute and subacute studies. All procedures were approved by the Louisiana State University Health Sciences Center Institutional Animal Care and Use Committee and conducted in accordance with the National Institutes of Health guidelines for the care and use of animals.
# Metabolic Cage Renal Excretory Studies: Rats were placed in metabolic cages (model 18cv, Fenco, Cataumet, MA) for 2 hours to allow for acclimation and voiding of residual urine. Following the acclimation period, rats were volume loaded with 20 cc kg^−1 drug or vehicle (isotonic saline) via oral gavage. Urines were collected each hour over a 5-hour period. Following completion of the study rats were returned to their home cages. […] These points are marked on the figures with number of measurements in parentheses.
# Experimental Design and Analysis: All results are expressed as mean±SEM. […] Means between groups for total urine output, Na^+ concentration, K^+ concentration, and urine osmolality were compared using a Student's t-test. Statistical significance was characterized as P<0.05. Statistics were carried out using Prism 7.05 software (GraphPad Software, Inc., San Diego, CA) and IBM SPSS Statistics (IBM, Armonk, NY).
# Sprague-Dawley rats [3] = experiment: Reversal of oral furosemide diuretic resistance by oral nalfurafine (FIG. 17); details: nalfurafine 150 μg/kg oral added from day 7
# Protocol: (§1) Male Sprague-Dawley rats were placed in individual metabolic cages in a room with 12-hour automatic light on/off control and allowed tap water and rodent chow ad libitum. Over the next two (2) days (control period), rats were administered vehicle (5% NaOH; 1 M PBS) orally (gavage) in the morning (9:00 am) and afternoon (2:00 pm) and urine was collected for 5-hours after the first oral treatment. […] This was repeated for 8 consecutive days (experimental period).
# Sprague-Dawley rats [4] = experiment: Prevention of diuretic resistance to twice daily furosemide by nalfurafine, 5-hour urine (FIG. 15); details: nalfurafine 10 μg/kg IP added to furosemide 20 mg/kg twice daily
# Protocol: as §1, with “M PBS, IP)” for “M PBS) orally (gavage)”, “pm) of each day, with” for “pm) and”, “urine” for “urine was”, “5-hours starting immediately” for “5-hours”, “first injection.” for “first oral treatment.”, “for 4” for “for 8”
# [5] = ICV norBNI (1 μg/5 μL) pretreatment
# [6] = IV norBNI (30 mg/kg) pretreatment
# [7] = oral gavage, cumulative 5-hour urine, same doses, mean±SEM
smiles,measurement,setting,value
"CN(C(=O)/C=C/c1ccoc1)[C@@H]1CC[C@@]2(O)[C@H]3Cc4ccc(O)c5c4[C@@]2(CCN3CC2CC2)[C@H]1O5 [nalfurafine, Nalfurafine]",Effect on MAP,[1]; [5],prevented the decrease in MAP
same,Total urine output,[1]; [5],4.72 ± 0.41 mL
same,Urine osmolality,[1]; [5],358.5 ± 30.6 mmol/kg
same,Urine potassium concentration [K+],[1]; [5],12.77±3.99 μeq/mL
same,Urine sodium concentration [Na+],[1]; [5],82.33±7.74 μeq/mL
same,Total urine output,[1]; ICV vehicle (5 μL) pretreatment,8.37 ± 0.40 mL
same,Effect on HR,[1]; ICV vehicle pretreatment,slight but statistically significant increase in HR
same,MAP peak Δ,"[1]; ICV vehicle pretreatment, peak at 60 min (difelikefalin), 50 min (nalfurafine)",−6 mmHg
same,Urine osmolality,[1]; ICV vehicle pretreatment,164 ± 8.09 mmol/kg
same,Urine potassium concentration [K+],[1]; ICV vehicle pretreatment,8.19±2.15 μeq/mL
same,Urine sodium concentration [Na+],[1]; ICV vehicle pretreatment,37.78±5.35 μeq/mL
same,Effect on HR,[1]; [6],did not produce any change in HR
same,MAP peak Δ,"[1]; IV norBNI (30 mg/kg) pretreatment, 80-minute peak for difelikefalin",abolished
same,Total urine output,[1]; [6],5.03 ± 0.39 mL
same,Urine osmolality,[1]; [6],439.2 ± 24.02 mmol/kg
same,Urine potassium concentration [K+],[1]; [6],10.94±1.09 μeq/mL
same,Urine sodium concentration [Na+],[1]; [6],109.1±7.85 μeq/mL
same,Total urine output,[1]; IV vehicle (2 cc/kg) pretreatment,9.37 ± 0.42 mL
same,Effect on HR,[1]; IV vehicle pretreatment,did not produce any change in HR
same,Urine osmolality,[1]; IV vehicle pretreatment,148.7 ± 4.4 mmol/kg
same,Urine potassium concentration [K+],[1]; IV vehicle pretreatment,5.49±0.68 μeq/mL
same,Urine sodium concentration [Na+],[1]; IV vehicle pretreatment,32.56±3.05 μeq/mL
same,Time of peak diuresis,[2]; after oral gavage 150 μg kg−1,2 h
same,Potassium concentration [K+] in cumulative urine,[2]; [7],14.55±1.46 μeq ml^−1
same,Sodium concentration [Na+] in cumulative urine,[2]; [7],16.92±1.45 μeq ml^−1
same,Total urine output,"[2]; oral gavage, cumulative urine of 5-hour protocol, nalfurafine 150 μg kg−1, furosemide 50 mg kg−1, HCTZ 5 mg kg−1, amiloride 5 mg kg−1, mean±SEM, n=6",14.55 ± 0.57 mL
same,Effect on established diuretic resistance to furosemide,Sprague-Dawley rats [3],able to treat or rescue the diuretic resistance
same,Effect on diuretic resistance to furosemide,Sprague-Dawley rats [4],prevents the diuretic resistance

# From patent US20240180895A1, “USE OF KAPPA OPIOID RECEPTOR AGONISTS TO TREAT CARDIOVASCULAR DISEASE” (Board of Supervisors of Louisiana State University and …, priority 2021, published 2024)
